Here are results for two molecules from patent US7465715B2, “Method for treatment of multiple sclerosis” (Can-Fite Biopharma, Ltd., priority 2003, dated 2008).

One experiment addresses T1, A1 receptor (Rattus norvegicus, UniProt P25099).
T1 sequence (P25099 1-326): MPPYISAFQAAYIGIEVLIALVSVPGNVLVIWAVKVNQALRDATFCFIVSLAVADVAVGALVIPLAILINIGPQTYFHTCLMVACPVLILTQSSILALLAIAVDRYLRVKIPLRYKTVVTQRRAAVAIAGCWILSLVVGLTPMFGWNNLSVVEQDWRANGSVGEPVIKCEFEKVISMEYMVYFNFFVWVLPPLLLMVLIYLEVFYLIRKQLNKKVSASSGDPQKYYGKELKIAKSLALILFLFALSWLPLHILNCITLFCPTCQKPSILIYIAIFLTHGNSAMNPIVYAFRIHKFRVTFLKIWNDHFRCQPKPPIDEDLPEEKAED
The settings on record: cited from earlier work.

For the next experiment, the system named is multiple sclerosis. Particulars: patients having MS; cited from earlier work.
A further experiment deals with EAE. Description: Experimental autoimmune encephalomyelitis (EAE) induced with MBP in Lewis rats, clinical score. The experiment is classed as in vivo, female Lewis rats.

Take `Nc1nc(Cl)nc2c1ncn2[C@H]1C[C@H](O)[C@@H](CO)O1` [CdA, 2-chloro-2′-deoxyadenosine]: the “functional character at A1 receptors” value on A1 receptor is listed as “putative partial agonist”. The “effect on the disease condition of MS patients” value in the experiment with multiple sclerosis was “markedly ameliorate the disease condition”.

Turning to `CNC(=O)[C@H]1O[C@@H](n2cnc3c(NCc4cccc(I)c4)ncnc32)[C@H](O)[C@@H]1O` [CF101, N^6-(3-iodobenzyl)-adenosine-5′-N-methyluronamide], the “difference in the maximal clinical score between treated and control groups” value with EAE (10 μg/kg PO BID from day 7, P<0.01, Student's t test) was “significant”. In the experiment with EAE (10 μg/kg PO BID from day 7 after disease induction), the “severity of the disease in the treated group” value is on record as “significantly reduced”. Further, the “clinical score in comparison to the control group” value in the experiment with EAE (10 μg/kg PO BID from day 7 after disease induction, score 0-5) was “remarkably low clinical score”.
